In patent US20110071150A1 (priority 2009, published 2011):

Test system: Jurkat IL-2 Production
Test: Jurkat IL-2 Production Assay
Assay type: cell-based
Conditions: Homo sapiens, Jurkat cell (ATCC), 18-20 h incubation, PHA 5 μg/mL with 1% FBS, or PMA/Ionomycin with 30% FBS (table does not say which)
Experimental: Jurkat IL-2 Production Assay
Cell: Jurkat cell (ATCC) was grown in RPMI 1640 with 10% FBS and 1% penicillin/streptomycin. The cell density was kept at 1.2-1.8×10^6/mL in culture flask before seeding into culture plate, and the cell density in the plate was 0.5×10^6/[…]/well.
Culture media: RPMI 1640 with 1% FBS or 30% FBS for high serum assay.
Test compound: serial dilution was done in 100% DMSO, and intermediate dilution was done with RPMI 1640 medium with 1% FBS. The DMSO final concentration in culture well was 0.25%.
Stimulant: PHA (Sigma#L9017-10MG) was used for the assay with 1% FBS in culture medium, and added after 10 minutes exposure of cell to compound/DMSO. The PHA final concentration in culture well was 5 μg/mL. PMA (Sigma# P-8139 5MG)/Ionomycin (Sigma# 10634-5MG) was used for the assay with 30% FBS in culture medium, and added at same time point as the 1% FBS culture assay. The final concentration of PMA was 50 ng/mL, and Ionomycin final concentration was 500 ng/mL.
Incubation: at 37° C. with 5% CO2 and 95% humidity for 18 h˜20 h.
IC50: IC50 was calculated with the data analysis software XLfit4, General Pharmacology model 251.

Compound | IC50 [nM]
Cc1cc(C#N)ccc1-c1ccc2[nH]c(-c3cccnc3C)cc2c1 [Example 147, methyl-4-(2-(2-methylpyridin-3-yl)-1H-indol-5-yl)benzonitrile] | 311
Cc1cc(C(N)=O)ccc1-c1ccc2[nH]c(-c3c(F)cccc3F)cc2c1 [Example 89, 4-[2-(2,6-Difluoro-phenyl)-1H-indol-5-yl]-3-methyl-benzamide] | 451
Cc1sc(C(C)C)nc1-c1ccc2[nH]c(-c3ccccc3Cl)cc2c1 [Example 69, 2-(2-Chloro-phenyl)-5-(2-isopropyl-5-methyl-thiazol-4-yl)-1H-indole] | 949
CCn1nc(C(F)(F)F)cc1-c1ccc2[nH]c(-c3c(F)cc(OC)cc3Cl)cc2c1 [Example 203, 2-(2-chloro-6-fluoro-4-methoxyphenyl)-5-(1-ethyl-3-(trifluoromethyl)-1H-pyrazol-5-yl)-1H-indole] | 31
Cn1nc(-c2cccnc2)cc1-c1ccc2[nH]c(-c3ccccc3F)cc2c1 [Example 75, 2-(2-Fluoro-phenyl)-5-(2-methyl-5-pyridin-3-yl-2H-pyrazol-3-yl)-1H-indole] | 310
Cc1sc(-c2ncco2)nc1-c1ccc2[nH]c(-c3c(F)cccc3F)cc2c1 [Example 73, 2-(2,6-Difluoro-phenyl)-5-(5-methyl-2-oxazol-2-yl-thiazol-4-yl)-1H-indole] | 60
Cc1cc(S(=O)(=O)N2CCOCC2)ccc1-c1ccc2[nH]c(-c3c(F)cccc3Cl)cc2c1 [Example 169, 4-(4-(2-(2-chloro-6-fluorophenyl)-1H-indol-5-yl)-3-methylphenylsulfonyl)morpholine] | 117
CCn1nc(C(F)(F)F)cc1-c1ccc2[nH]c(-c3cnc(OC)cc3C)cc2c1 [Example 190, 5-(1-ethyl-3-(trifluoromethyl)-1H-pyrazol-5-yl)-2-(6-methoxy-4-methylpyridin-3-yl)-1H-indole] | 111
CCn1nc(C(F)(F)F)cc1-c1ccc2[nH]c(-c3ccc(OC)nc3C)cc2c1 [Example 193, 5-(1-ethyl-3-(trifluoromethyl)-1H-pyrazol-5-yl)-2-(6-methoxy-2-methylpyridin-3-yl)-1H-indole] | 129
Cc1cc(-c2cnc(N)nc2)ncc1-c1ccc2[nH]c(-c3c(F)cccc3F)cc2c1 [Example 209, 5-{5-[2-(2,6-Difluoro-phenyl)-1H-indol-5-yl]-4-methyl-pyridin-2-yl}-pyrimidin-2-ylamine] | 54
COc1cc(C)c(-c2ccc3[nH]c(-c4c(F)cccc4Cl)cc3c2)cn1 [Example 121, 2-(2-Chloro-6-fluoro-phenyl)-5-(6-methoxy-4-methyl-pyridin-3-yl)-1H-indole] | 12
CCn1nc(C(F)(F)F)cc1-c1ccc2[nH]c(C3CCOCC3)cc2c1 [Example 198, 5-(1-ethyl-3-(trifluoromethyl)-1H-pyrazol-5-yl)-2-(tetrahydro-2H-pyran-4-yl)-1H-indole] | 95
Cc1sc(C2CC2)nc1-c1ccc2[nH]c(-c3c(F)cccc3F)cc2c1 [Example 72, 5-(2-Cyclopropyl-5-methyl-thiazol-4-yl)-2-(2,6-difluoro-phenyl)-1H-indole] | 397
COc1ccc(F)c(-c2cc3cc(-c4ccc(C#N)cc4C)ccc3[nH]2)c1F [Example 142, 4-(2-(2,6-difluoro-3-methoxyphenyl)-1H-indol-5-yl)-3-methylbenzonitrile] | 167
Cc1cc(C#N)ccc1-c1ccc2[nH]c(-c3sccc3C)cc2c1 [Example 146, methyl-4-(2-(3-methylthiophen-2-yl)-1H-indol-5-yl)benzonitrile] | 150
Cc1cc(-c2ncco2)ccc1-c1ccc2[nH]c(-c3c(F)cccc3Cl)cc2c1 [Example 52, 2-(2-Chloro-6-fluoro-phenyl)-5-(2-methyl-4-oxazol-2-yl-phenyl)-1H-indole] | 62
Cc1sc(-c2ccnnc2)nc1-c1ccc2[nH]c(-c3c(F)cccc3F)cc2c1 [Example 105, 2-(2,6-Difluoro-phenyl)-5-(5-methyl-2-pyridazin-4-yl-thiazol-4-yl)-1H-indole] | 664
COc1ccc(-c2ccc3[nH]c(-c4c(F)cccc4F)cc3c2)c(OC)c1 [Example 90, 2-(2,6-Difluoro-phenyl)-5-(2,4-dimethoxy-phenyl)-1H-indole] | 177
CCc1sc(-c2cccnc2)nc1-c1ccc2[nH]c(-c3c(F)cccc3F)cc2c1 [Example 207, 2-(2,6-Difluoro-phenyl)-5-(5-ethyl-2-pyridin-3-yl-thiazol-4-yl)-1H-indole] | 26
COc1ccc(-c2ccc3[nH]c(-c4c(F)cccc4F)cc3c2)c(OC)n1 [Example 95, 2-(2,6-Difluoro-phenyl)-5-(2,6-dimethoxy-pyridin-3-yl)-1H-indole] | 994

Compound | IC50 [nM]
COc1cc(C)c(-c2cc3cc(-c4ccc(C#N)cc4C)ccc3[nH]2)cn1 [Example 143, 4-(2-(6-methoxy-4-methylpyridin-3-yl)-1H-indol-5-yl)-3-methylbenzonitrile] | 182
Cn1nc(-c2ccncc2)cc1-c1ccc2[nH]c(-c3c(F)cccc3Cl)cc2c1 [Example 51, 2-(2-Chloro-6-fluoro-phenyl)-5-(2-methyl-5-pyridin-4-yl-2H-pyrazol-3-yl)-1H-indole] | 524
Cc1cc(-c2nnn(C)n2)ccc1-c1ccc2[nH]c(-c3c(F)cccc3Cl)cc2c1 [Example 171, 2-(2-chloro-6-fluorophenyl)-5-(2-methyl-4-(2-methyl-2H-tetrazol-5-yl)phenyl)-1H-indole] | 17
Cc1cc(C#N)ccc1-c1ccc2[nH]c(-c3c(F)cc(OCCCO)cc3F)cc2c1 [Example 156, 4-(2-(2,6-difluoro-4-(3-hydroxypropoxy)phenyl)-1H-indol-5-yl)-3-methylbenzonitrile] | 130
COc1ncc(-c2ccc3[nH]c(-c4c(F)cccc4F)cc3c2)c(OC)n1 [Example 93, 2-(2,6-Difluoro-phenyl)-5-(2,4-dimethoxy-pyrimidin-5-yl)-1H-indole] | 921
Cc1cc(S(=O)(=O)N(C)C)ccc1-c1ccc2[nH]c(-c3c(F)cccc3Cl)cc2c1 [Example 159, 4-[2-(2-Chloro-6-fluoro-phenyl)-1H-indol-5-yl]-3,N,N-trimethyl-benzenesulfonamide] | 25
Cc1sc(-c2cccnc2)nc1-c1ccc2[nH]c(-c3c(F)cccc3F)cc2c1 [Example 13, 2-(2,6-Difluoro-phenyl)-5-(5-methyl-2-pyridin-3-yl-thiazol-4-yl)-1H-indole] | 66
Cn1nc(-c2cc[nH]n2)cc1-c1ccc2[nH]c(-c3c(F)cccc3F)cc2c1 [Example 108, 2-(2,6-Difluoro-phenyl)-5-(1-methyl-1H,1′H-[3,3]bipyrazolyl-5-yl)-1H-indole] | 601
Cc1cccc(C)c1-c1cc2cc(-c3nc(-c4ccccn4)sc3C)ccc2[nH]1 [Example 219, 2-(2,6-Dimethyl-phenyl)-5-(5-methyl-2-pyridin-2-yl-thiazol-4-yl)-1H-indole] | 158
Cn1nc(C(F)(F)F)cc1-c1ccc2[nH]c(-c3ccc(OC(F)(F)F)cc3)cc2c1 [Example 3, 5-(2-Methyl-5-trifluoromethyl-2H-pyrazol-3-yl)-2-(4-trifluoromethoxy-phenyl)-1H-indole] | 954
CCOc1cc(C)c(-c2ccc3[nH]c(-c4c(F)cccc4Cl)cc3c2)cn1 [Example 164, 2-(2-chloro-6-fluorophenyl)-5-(6-ethoxy-4-methylpyridin-3-yl)-1H-indole] | 33
Cc1nc(-c2ccccc2)sc1-c1ccc2[nH]c(-c3ccccc3Cl)cc2c1 [Example 7, 2-(2-Chloro-phenyl)-5-(4-methyl-2-phenyl-thiazol-5-yl)-1H-indole] | 800
Cc1cc(-c2cncnc2)ncc1-c1ccc2[nH]c(-c3c(F)cccc3F)cc2c1 [Example 210, 2-(2,6-Difluoro-phenyl)-5-(4-methyl-6-pyrimidin-5-yl-pyridin-3-yl)-1H-indole] | 60
CNC(=O)c1cc(C)c(-c2ccc3[nH]c(-c4c(F)cccc4Cl)cc3c2)cn1 [Example 118, 5-[2-(2-Chloro-6-fluoro-phenyl)-1H-indol-5-yl]-4-methyl-pyridine-2-carboxylic acid methylamide] | 180
Fc1cccc(F)c1-c1cc2cc(-c3ccc(C(F)(F)F)cc3Cl)ccc2[nH]1 [Example 94, 5-(2-Chloro-4-trifluoromethyl-phenyl)-2-(2,6-difluoro-phenyl)-1H-indole] | 175
Cc1ccccc1-c1cc2cc(-c3cc(C4CC4)nn3C)ccc2[nH]1 [Example 62, 5-(5-Cyclopropyl-2-methyl-2H-pyrazol-3-yl)-2-o-tolyl-1H-indole] | 964
Cc1ccccc1-c1cc2cc(-c3cc(-c4cccnc4)nn3C)ccc2[nH]1 [Example 79, 5-(2-Methyl-5-pyridin-3-yl-2H-pyrazol-3-yl)-2-o-tolyl-1H-indole] | 139
Cc1cccc(C)c1-c1cc2cc(-c3nc(-c4cccnc4)sc3C)ccc2[nH]1 [Example 218, 2-(2,6-Dimethyl-phenyl)-5-(5-methyl-2-pyridin-3-yl-thiazol-4-yl)-1H-indole] | 110
Cc1cc(C#N)ccc1-c1ccc2[nH]c(-c3ccc(F)cc3F)cc2c1 [Example 141, 4-(2-(2,4-difluorophenyl)-1H-indol-5-yl)-3-methylbenzonitrile] | 660
